Test [1] has as its target D(2) dopamine receptor (Homo sapiens) (UniProt P14416). In words: Displacement of [3H]YM091512 from dopamine D2 receptor at 10 uM.
The target in test [2] is T1, 5-hydroxytryptamine receptor 1A (Homo sapiens) (UniProt P08908).
T1 sequence (whole entry): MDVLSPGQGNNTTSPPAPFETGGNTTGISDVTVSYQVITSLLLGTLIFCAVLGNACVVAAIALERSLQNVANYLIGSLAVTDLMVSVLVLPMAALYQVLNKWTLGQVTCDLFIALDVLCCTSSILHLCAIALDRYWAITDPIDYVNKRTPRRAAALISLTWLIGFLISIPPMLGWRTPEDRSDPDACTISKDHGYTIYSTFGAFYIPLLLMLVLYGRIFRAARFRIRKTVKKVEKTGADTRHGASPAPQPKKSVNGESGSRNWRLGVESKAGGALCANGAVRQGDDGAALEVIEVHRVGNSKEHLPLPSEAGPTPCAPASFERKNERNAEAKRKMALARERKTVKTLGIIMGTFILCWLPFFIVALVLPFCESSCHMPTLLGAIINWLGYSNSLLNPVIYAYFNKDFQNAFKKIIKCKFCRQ
In words: Displacement of [3H]8-OH-DPAT from 5HT1A receptor at 10 uM.

For test [3], the target named is T2, 5-hydroxytryptamine receptor 2C (Homo sapiens) (UniProt P28335).
T2 sequence (whole entry): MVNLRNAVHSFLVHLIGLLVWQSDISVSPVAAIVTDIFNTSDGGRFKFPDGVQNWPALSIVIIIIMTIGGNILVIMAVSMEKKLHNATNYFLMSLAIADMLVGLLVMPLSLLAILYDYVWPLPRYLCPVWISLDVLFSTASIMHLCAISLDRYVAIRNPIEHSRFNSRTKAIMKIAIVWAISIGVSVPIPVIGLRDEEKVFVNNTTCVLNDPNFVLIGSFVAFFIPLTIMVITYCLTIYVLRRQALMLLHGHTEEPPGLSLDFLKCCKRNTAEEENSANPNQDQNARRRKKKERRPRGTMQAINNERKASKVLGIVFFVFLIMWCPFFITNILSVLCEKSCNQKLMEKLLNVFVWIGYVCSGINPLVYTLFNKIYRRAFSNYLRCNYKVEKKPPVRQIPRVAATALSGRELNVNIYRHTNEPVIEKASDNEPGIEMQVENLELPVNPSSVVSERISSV
In words: Displacement of [3H]mesulergine from 5HT2C receptor at 10 uM.

Test [4] concerns Mycobacterium tuberculosis. Briefly: Antitubercular activity against Mycobacterium tuberculosis H37Rv by MABA assay. It counts as functional.

≈ marks a conversion by molar mass, not a printed value. Where “and” joins values, the source holds several entries; their conditions need not be identical. Equal entries are not always repeated. Bounds are passed on as bounds.

D(2) dopamine receptor (Homo sapiens), sequence (P14416 whole entry): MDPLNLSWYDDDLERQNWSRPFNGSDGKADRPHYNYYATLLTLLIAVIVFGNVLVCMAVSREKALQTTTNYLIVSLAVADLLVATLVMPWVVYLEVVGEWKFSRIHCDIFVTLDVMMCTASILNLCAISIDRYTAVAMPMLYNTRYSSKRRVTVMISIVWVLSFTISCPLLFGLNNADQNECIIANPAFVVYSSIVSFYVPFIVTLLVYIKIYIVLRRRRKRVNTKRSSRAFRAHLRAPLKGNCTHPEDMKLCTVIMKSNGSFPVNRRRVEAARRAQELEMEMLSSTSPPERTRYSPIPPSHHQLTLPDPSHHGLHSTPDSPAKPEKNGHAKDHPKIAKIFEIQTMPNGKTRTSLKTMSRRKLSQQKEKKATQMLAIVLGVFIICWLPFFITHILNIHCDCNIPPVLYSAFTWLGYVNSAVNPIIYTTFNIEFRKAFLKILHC

With `CN1CCCC(CN2c3ccccc3Sc3cccnc32)C1` (centres undefined), the Activity was 86% in test [1], 19% in test [2] and 47% in test [3]. Besides, the MIC in test [4] was > 10 µg/mL.

Consider `CC1CN(Cc2ccc(CN3c4ccccc4Sc4ccc(C(F)(F)F)cc43)cc2)CC(C)O1` (centres undefined), for which the Activity in test [1] is 75%; in test [2], 0%; in test [3], 7%. For the same molecule, the MIC in test [4] was > 20 µg/mL.

For `CN1CCCC(CN2c3ccccc3Sc3cc(F)ccc32)C1` (centres undefined), the Activity in test [1] amounted to 87%; in test [2], 7%; in test [3] it was 89%. Moreover, in test [4], it took 10.8 µg/mL (≈ 32.9 µM) to inhibit growth (MIC).

Take `CN1CCCC(CN2c3ccccc3Sc3ccc(C(F)(F)F)cc32)C1` (centres undefined): the values for the Activity in test [1], in test [2] and in test [3] were 87%, 5% and 56%, respectively. The same molecule displayed an MIC in test [4] of 7.2 µg/mL (≈ 19 µM).

For `CN1CCCC(CN2c3ccccc3Sc3ccc(-c4ccccc4)cc32)C1` (centres undefined), the Activity worked out at 97% in test [1], 1% in test [2] and 14% in test [3]. Further, the lowest concentration to inhibit growth in test [4] (MIC) was 4.5 µg/mL (≈ 11.6 µM).

Take `CN1CCN(CCCN2c3ccccc3Sc3ccc(C(F)(F)F)cc32)CC1`: the Activity was 100% and 98% in test [1]; 76% and 67% in test [2]; 91% and 97% in test [3].

As to `FC(F)(F)c1ccc2c(c1)N(CCCNCc1ccccc1)c1ccccc1S2`, the results for the Activity in test [1], in test [2] and in test [3] were 97%, 61% and 85%, respectively. Moreover, it took 4.2 µg/mL (≈ 10.1 µM) to inhibit growth in test [4] (MIC).

On to `Cc1ccc2c(c1)Sc1ccccc1N2CC1CCCN(C)C1` (centres undefined), for which the Activity in test [1] was found to be 93%; in test [2] it was 0%; in test [3], 26%. For the same molecule, the MIC in test [4] was 7.2 µg/mL (≈ 22.2 µM).

On to `FC(F)(F)c1ccc2c(c1)N(CCCNc1nccs1)c1ccccc1S2`, for which the Activity in test [1] turned out to be 95%; in test [2], 54%; in test [3], 81%. In test [4], this molecule registered an MIC of 14 µg/mL (≈ 34.4 µM).

On to `CN1CCCC(CN2c3ccccc3Sc3cnccc32)C1` (centres undefined), for which the MIC in test [4] was > 20 µg/mL.

In the case of `CN1CCCC(CN2c3ccccc3Sc3ccccc32)C1` (centres undefined) [MEPAZINE], the results for the Activity in test [1], in test [2] and in test [3] were 88%, 0% and 29%, respectively. The molecule also registered a minimum inhibitory concentration (MIC) in test [4] of 17 µg/mL (≈ 54.8 µM).

Regarding `CC(CO)NCCCN1c2ccccc2Sc2ccc(C(F)(F)F)cc21` (centres undefined), the values for the Activity in test [1], in test [2] and in test [3] were 100%, 58% and 91%, respectively. For the same molecule, the MIC in test [4] amounted to 4.6 µg/mL (≈ 12 µM).

`CN1CCN(CCCN2c3ccccc3Sc3ccc(C(F)(F)F)cc32)CC1` [TRIFLUOPERAZINE] had a minimal inhibitory concentration (MIC) in test [4] of 7.6 µg/mL (≈ 18.7 µM).

`FC(F)(F)c1ccc2c(c1)N(Cc1ccc(CNCc3ccccc3)cc1)c1ccccc1S2`: the Activity was 13% in test [1], 0% in test [2] and 0% in test [3]. Also, the MIC in test [4] is > 20 µg/mL.

For `CN1CCCC(CN2c3ccccc3Sc3cc(-c4ccccc4)ccc32)C1` (centres undefined), the values for the Activity in test [1], in test [2] and in test [3] were 96%, 0% and 58%, respectively. It took 2.1 µg/mL (≈ 5.43 µM) to inhibit growth in test [4] (MIC).

`CN1CCCC(CN2c3ccccc3Sc3cc(N4CCOCC4)ccc32)C1` (centres undefined): the Activity came out at 59% in test [1], 0% in test [2] and 7% in test [3]. Also, in test [4], the MIC was > 2 µg/mL.

As to `FC(F)(F)c1ccc2c(c1)N(Cc1ccc(CNc3cccc(Oc4ccccc4)c3)cc1)c1ccccc1S2`, the Activity was determined as 26% in test [1], 0% in test [2] and 0% in test [3]. The MIC in test [4] is > 20 µg/mL.

As for `CN(Cc1ccccc1)Cc1ccc(CN2c3ccccc3Sc3ccc(C(F)(F)F)cc32)cc1`, the Activity in test [1] was 66%; in test [2], 4%; in test [3], 0%. In test [4], the MIC was > 20 µg/mL.

Turning to `FC(F)(F)c1ccc2c(c1)N(Cc1ccc(CNc3nccs3)cc1)c1ccccc1S2`, the Activity in test [1] was 11%; in test [2], 0%; in test [3] it was 0%. The minimal inhibitory concentration (MIC) in test [4] was > 10 µg/mL.

Take `CN1CCN(Cc2ccc(CN3c4ccccc4Sc4ccc(C(F)(F)F)cc43)cc2)CC1`: the Activity in test [1] was determined as 14%; in test [2], 0%; in test [3], 0%. This molecule also gave an MIC in test [4] of 15 µg/mL (≈ 31.9 µM).

As for `COc1ccc2c(c1)Sc1ccccc1N2CC1CCCN(C)C1` (centres undefined), the results for the Activity in test [1], in test [2] and in test [3] were 75%, 0% and 41%, respectively. Further, the MIC in test [4] was > 20 µg/mL.

With `FC(F)(F)c1ccc2c(c1)N(CCCN1CCN(c3ncccn3)CC1)c1ccccc1S2`, the results for the Activity in test [1], in test [2] and in test [3] were 50%, 94% and 85%, respectively. The same molecule returned an MIC in test [4] of 16 µg/mL (≈ 33.9 µM).

As to `OC1CCN(Cc2ccc(CN3c4ccccc4Sc4ccc(C(F)(F)F)cc43)cc2)C1` (centres undefined), the Activity in test [1] came out at 79%; in test [2], 0%; in test [3] it was 65%. Also, in test [4], 8.4 µg/mL (≈ 18.4 µM) was the least that counted as inhibitory (MIC).

On to `FC(F)(F)c1ccc2c(c1)N(CCCN1c3ccccc3Sc3ccc(C(F)(F)F)cc31)c1ccccc1S2`, for which the Activity in test [1] came to 48%; in test [2], 67%; in test [3], 83%. For the same molecule, the MIC in test [4] came out at 2.3 µg/mL (≈ 4 µM).

With `FC(F)(F)c1ccc2c(c1)N(Cc1ccc(CN3CCN(c4ncccn4)CC3)cc1)c1ccccc1S2`, the Activity is 72% in test [1], 10% in test [2] and 0% in test [3]. Moreover, the MIC in test [4] is > 20 µg/mL.

Take `CN1CCCC(CN2c3ccccc3Sc3cc(Cl)ccc32)C1` (centres undefined): the figures for the Activity in test [1], in test [2] and in test [3] were 94%, 0% and 67%, respectively. The molecule also yielded an MIC in test [4] of 14.3 µg/mL (≈ 41.5 µM).

`FC(F)(F)c1ccc2c(c1)N(CCCNc1ccccn1)c1ccccc1S2`: the results for the Activity in test [1], in test [2] and in test [3] were 85%, 45% and 93%, respectively. For the same molecule, the minimal inhibitory concentration (MIC) in test [4] is 20 µg/mL (≈ 49.8 µM).

Turning to `CSc1ccc2c(c1)Sc1ccccc1N2CC1CCCN(C)C1` (centres undefined), the Activity in test [2] stood at 67%. In test [4], this molecule came in with an MIC of 11.6 µg/mL (≈ 32.5 µM).

As to `CCN(CC)CCCN1c2ccccc2Sc2ccc(C(F)(F)F)cc21`, the Activity in test [1] is 100%; in test [2] it was 63%; in test [3] it was 94%. Moreover, the MIC in test [4] amounted to 15 µg/mL (≈ 39.4 µM).

On to `FC(F)(F)c1ccc2c(c1)N(CCCNc1cccc(Oc3ccccc3)c1)c1ccccc1S2`, for which the Activity in test [1] worked out at 0%; in test [2] it was 0%; in test [3], 5%. Moreover, the MIC in test [4] was > 20 µg/mL.

Take `CN(CCCN1c2ccccc2Sc2ccc(C(F)(F)F)cc21)Cc1ccccc1`: the Activity in test [1] is 99%; in test [2] it was 31%; in test [3] it was 68%. Also, the MIC in test [4] is > 20 µg/mL.

For the molecule `CN(C)CCCN1c2ccccc2Sc2ccc(Cl)cc21.Cl` [CHLORPROMAZINE HYDROCHLORIDE], the Activity was 96% in test [1], 44% in test [2] and 86% in test [3]. In test [4], the MIC was 6 µg/mL.

On to `CC(CO)NCc1ccc(CN2c3ccccc3Sc3ccc(C(F)(F)F)cc32)cc1` (centres undefined), for which the results for the Activity in test [1], in test [2] and in test [3] were 93%, 24% and 59%, respectively. This molecule also returned an MIC in test [4] of 6.4 µg/mL (≈ 14.4 µM).

For `FC(F)(F)c1ccc2c(c1)N(Cc1ccc(CN3c4ccccc4Sc4ccc(C(F)(F)F)cc43)cc1)c1ccccc1S2`, the Activity in test [1] came out at 40%; in test [2] it was 0%; in test [3], 0%. This molecule also yielded an MIC in test [4] of 2 µg/mL (≈ 3.14 µM).

For `CCN(CC)Cc1ccc(CN2c3ccccc3Sc3ccc(C(F)(F)F)cc32)cc1`, the values for the Activity in test [1], in test [2] and in test [3] were 97%, 23% and 57%, respectively. In addition, the MIC in test [4] is > 10 µg/mL.

As for `CC1CN(CCCN2c3ccccc3Sc3ccc(C(F)(F)F)cc32)CC(C)O1` (centres undefined), the Activity in test [1] turned out to be 99%; in test [2], 98%; in test [3], 30%. Besides, in test [4], the MIC is > 20 µg/mL.

For the molecule `CN1CCN(CCCN2c3ccccc3Sc3ccc(C(F)(F)F)cc32)CC1.Cl`, the MIC in test [4] is 6 µg/mL.

Take `FC(F)(F)c1ccc2c(c1)N(Cc1ccc(CNc3ccccn3)cc1)c1ccccc1S2`: the Activity came to 90% in test [1], 0% in test [2] and 53% in test [3]. In addition, the MIC in test [4] is > 10 µg/mL.

With `OC1CCN(CCCN2c3ccccc3Sc3ccc(C(F)(F)F)cc32)C1` (centres undefined), the Activity worked out at 74% in test [1], 62% in test [2] and 95% in test [3]. This molecule also gave an MIC in test [4] of 11 µg/mL (≈ 27.9 µM).
